Laboratory results taken from the NIST ThermoML archive (doi:10.1016/j.jct.2011.12.005).
Numbers after ± are expanded uncertainties.

Legend:
[1] = for Normal melting temperature: Crystal, DTA
[2] = Molar enthalpy of transition or fusion
[3] = Crystal 2, Differential scanning calorimeter

Row | Normal melting temperature [1] [°C] | Molar enthalpy of transition or fusion ([2]; Crystal, DSC) [kcal/mol] | Triple point temperature [1, 3] [K] | Molar enthalpy of transition or fusion [2, 3] [kcal/mol] | SMILES
1 | 49 ± 0.4 | 4.16 ± 0.12 | – | – | Cc1ccc(C(C)C)c(O)c1 [3-methyl-6-isopropylphenol]
2 | 207.6 ± 0.5 | 6.96 ± 0.191 | – | – | COc1cc(C(=O)O)ccc1O [4-hydroxy-3-methoxybenzoic acid]
3 | 171.8 ± 0.9 | 7.62 ± 0.215 | – | – | COc1cc(C=CC(=O)O)ccc1O [4-hydroxy-3-methoxycinnamic acid]
4 | 232.2 ± 0.5 | 4.28 ± 0.143 | 405.8 | 0.621 | Cn1c(=O)c2c(ncn2C)n(C)c1=O [caffeine]
